In patent US8415469B2, “Compounds and methods for kinase modulation, and indications therefor” (Plexxikon Inc., priority 2005, dated 2013):

Legend:
Type in all cases: biochemical
Jnk2 = target: T1, Jnk2 (Homo sapiens, UniProt P45984); test: AlphaScreen kinase assay, Jnk2; conditions: read-out: IC50, activity toward kinase Jnk2
T1 construct: purchased Roche Protein Expression Group (Indianapolis, IN)
Summary of the method: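 Bead-proximity format: phosphopeptide links anti-phospho antibody acceptor beads to streptavidin donor beads via biotin tag. Compounds were serially diluted 1:3 (8 points) from 20 mM stocks in DMSO.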

Jnk1 = target: T2, Jnk1 (Homo sapiens, UniProt P45983); test: AlphaScreen kinase assay, Jnk1; conditions: read-out: IC50, activity toward kinase Jnk1
T2 construct: purchased Upstate Biotechnology
T2 sequence (P45983 whole entry): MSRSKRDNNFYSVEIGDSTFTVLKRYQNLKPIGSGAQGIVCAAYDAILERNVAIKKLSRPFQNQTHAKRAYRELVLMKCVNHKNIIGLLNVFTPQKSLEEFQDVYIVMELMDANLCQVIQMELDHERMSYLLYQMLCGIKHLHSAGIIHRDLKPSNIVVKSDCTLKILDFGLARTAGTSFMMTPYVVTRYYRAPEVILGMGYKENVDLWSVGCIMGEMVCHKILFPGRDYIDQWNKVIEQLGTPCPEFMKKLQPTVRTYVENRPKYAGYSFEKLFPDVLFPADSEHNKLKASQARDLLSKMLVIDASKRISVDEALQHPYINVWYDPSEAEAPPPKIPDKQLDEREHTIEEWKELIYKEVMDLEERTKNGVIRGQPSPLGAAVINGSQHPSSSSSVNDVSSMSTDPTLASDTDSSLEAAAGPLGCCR

Ret = target: T3, Ret (Homo sapiens, UniProt P07949); test: AlphaScreen kinase assay, Ret; conditions: read-out: IC50, activity toward kinase Ret
T3 construct: P1378.pET-SF BI-PTP RET H661-R1012 HIS; made in house
T3 sequence (P07949 with tags, fused parts or gaps): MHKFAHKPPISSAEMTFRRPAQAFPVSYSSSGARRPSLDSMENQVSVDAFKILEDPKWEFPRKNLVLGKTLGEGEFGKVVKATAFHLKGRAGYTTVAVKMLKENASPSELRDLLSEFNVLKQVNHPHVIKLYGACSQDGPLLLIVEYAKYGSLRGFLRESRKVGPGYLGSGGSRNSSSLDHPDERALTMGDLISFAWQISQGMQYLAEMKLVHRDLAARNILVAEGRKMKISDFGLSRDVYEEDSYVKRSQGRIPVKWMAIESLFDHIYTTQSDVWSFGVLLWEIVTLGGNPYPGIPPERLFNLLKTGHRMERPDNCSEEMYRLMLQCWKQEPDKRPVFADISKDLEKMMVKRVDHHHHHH

Fms = target: T4, Fms (Homo sapiens, UniProt P07333); test: AlphaScreen kinase assay, Fms; conditions: read-out: IC50, activity toward kinase Fms
T4 construct: purchased Upstate Biotechnology
T4 sequence (P07333 20-972): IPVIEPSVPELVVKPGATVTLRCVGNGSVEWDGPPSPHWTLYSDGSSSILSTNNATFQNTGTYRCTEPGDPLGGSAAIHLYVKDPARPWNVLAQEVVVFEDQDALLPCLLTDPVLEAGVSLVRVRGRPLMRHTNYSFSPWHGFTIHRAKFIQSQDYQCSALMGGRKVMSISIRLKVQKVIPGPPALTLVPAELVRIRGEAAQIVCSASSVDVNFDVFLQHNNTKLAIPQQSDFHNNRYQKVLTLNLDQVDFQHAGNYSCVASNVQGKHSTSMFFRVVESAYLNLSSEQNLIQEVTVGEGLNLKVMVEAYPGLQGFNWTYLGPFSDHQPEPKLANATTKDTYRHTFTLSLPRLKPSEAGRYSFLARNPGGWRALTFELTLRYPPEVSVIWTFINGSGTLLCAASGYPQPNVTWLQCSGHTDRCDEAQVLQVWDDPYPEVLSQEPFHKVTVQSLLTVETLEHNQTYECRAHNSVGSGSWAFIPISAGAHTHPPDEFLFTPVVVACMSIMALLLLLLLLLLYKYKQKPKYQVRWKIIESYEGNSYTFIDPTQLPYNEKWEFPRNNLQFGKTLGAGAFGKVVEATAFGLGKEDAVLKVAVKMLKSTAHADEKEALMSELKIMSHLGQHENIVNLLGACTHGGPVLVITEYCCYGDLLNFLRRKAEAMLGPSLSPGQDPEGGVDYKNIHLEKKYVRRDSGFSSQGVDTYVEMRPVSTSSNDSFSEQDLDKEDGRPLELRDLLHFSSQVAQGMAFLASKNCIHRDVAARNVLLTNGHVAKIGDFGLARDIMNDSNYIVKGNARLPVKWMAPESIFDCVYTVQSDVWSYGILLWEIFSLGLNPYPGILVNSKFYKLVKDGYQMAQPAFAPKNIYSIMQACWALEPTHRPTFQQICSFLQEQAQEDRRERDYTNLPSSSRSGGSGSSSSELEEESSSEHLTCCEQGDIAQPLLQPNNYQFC

FGFR1 = target: T5, FGFR1 (Homo sapiens, UniProt P11362, C488A/C584S); test: AlphaScreen kinase assay, FGFR1; conditions: read-out: IC50, activity toward kinase FGFR
T5 construct: P1351.pET N6 BI-PTP FGFR A458-E765-X C488A, C584S; made in house; host or cells: E. coli (PTP1B co-expressed)
T5 sequence (P11362 458-765 C488A/C584S): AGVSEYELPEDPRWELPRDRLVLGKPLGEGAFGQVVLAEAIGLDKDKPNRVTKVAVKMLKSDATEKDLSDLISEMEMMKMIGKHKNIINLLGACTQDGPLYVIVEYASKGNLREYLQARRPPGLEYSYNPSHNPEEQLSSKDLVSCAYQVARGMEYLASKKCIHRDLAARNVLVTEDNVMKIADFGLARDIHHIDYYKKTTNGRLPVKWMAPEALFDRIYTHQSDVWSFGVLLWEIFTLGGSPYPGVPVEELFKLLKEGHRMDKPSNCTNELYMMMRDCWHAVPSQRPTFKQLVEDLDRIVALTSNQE

B-Raf V600E = target: T6, B-Raf V600E (Homo sapiens, UniProt P15056, V600E); test: AlphaScreen kinase assay, B-Raf V600E; conditions: read-out: IC50, activity toward kinase B-Raf V600E
T6 construct: P4254. pFastBacBD-CDC37 BRAF D437-K722-X, V600E; His6 with pFastBac HT leader (TEV site) (N); made in house; host or cells: Sf9 (baculovirus; chaperone CDC37 co-expressed)
T6 sequence (P15056 with tags, fused parts or gaps V600E): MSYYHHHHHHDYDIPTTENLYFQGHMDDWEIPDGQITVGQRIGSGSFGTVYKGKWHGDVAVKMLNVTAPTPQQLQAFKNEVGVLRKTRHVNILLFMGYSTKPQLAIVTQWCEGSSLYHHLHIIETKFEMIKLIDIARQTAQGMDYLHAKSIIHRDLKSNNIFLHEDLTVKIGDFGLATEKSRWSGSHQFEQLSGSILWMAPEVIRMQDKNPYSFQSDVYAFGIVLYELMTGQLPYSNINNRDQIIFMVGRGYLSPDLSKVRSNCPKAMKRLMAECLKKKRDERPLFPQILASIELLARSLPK

c-Raf-1 = target: T7, c-Raf-1 (Homo sapiens, UniProt P04049); test: AlphaScreen kinase assay, c-Raf-1; conditions: read-out: IC50, activity toward kinase c-Raf-1
T7 construct: purchased Upstate Biotechnology
T7 sequence (P04049 whole entry): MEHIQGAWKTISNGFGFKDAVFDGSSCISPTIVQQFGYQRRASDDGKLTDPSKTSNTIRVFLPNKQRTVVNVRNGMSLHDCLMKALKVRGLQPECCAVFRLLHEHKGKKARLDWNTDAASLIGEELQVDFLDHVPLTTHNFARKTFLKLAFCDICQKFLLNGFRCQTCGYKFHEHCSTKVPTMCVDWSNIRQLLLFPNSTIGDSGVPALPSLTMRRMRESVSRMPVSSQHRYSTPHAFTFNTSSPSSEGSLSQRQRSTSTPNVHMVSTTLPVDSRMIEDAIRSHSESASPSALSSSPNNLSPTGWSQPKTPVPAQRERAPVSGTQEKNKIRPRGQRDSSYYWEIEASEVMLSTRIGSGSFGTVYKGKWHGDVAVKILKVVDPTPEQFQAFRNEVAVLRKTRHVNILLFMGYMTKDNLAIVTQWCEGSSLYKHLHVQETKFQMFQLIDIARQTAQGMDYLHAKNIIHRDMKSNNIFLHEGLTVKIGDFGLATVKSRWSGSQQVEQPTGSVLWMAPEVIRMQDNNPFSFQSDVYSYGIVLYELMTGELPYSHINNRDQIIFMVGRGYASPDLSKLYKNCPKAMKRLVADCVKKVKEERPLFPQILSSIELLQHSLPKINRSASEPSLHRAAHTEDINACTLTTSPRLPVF

Kit = target: T8, Kit (Homo sapiens, UniProt P10721); test: AlphaScreen kinase assay, Kit; conditions: read-out: IC50, activity toward kinase Kit
T8 construct: P1332.N6 BI PTP KIT M552-K948-X COD; His6 (N); made in house; host or cells: E. coli (PTP1B co-expressed)
T8 sequence (P10721 with tags, fused parts or gaps): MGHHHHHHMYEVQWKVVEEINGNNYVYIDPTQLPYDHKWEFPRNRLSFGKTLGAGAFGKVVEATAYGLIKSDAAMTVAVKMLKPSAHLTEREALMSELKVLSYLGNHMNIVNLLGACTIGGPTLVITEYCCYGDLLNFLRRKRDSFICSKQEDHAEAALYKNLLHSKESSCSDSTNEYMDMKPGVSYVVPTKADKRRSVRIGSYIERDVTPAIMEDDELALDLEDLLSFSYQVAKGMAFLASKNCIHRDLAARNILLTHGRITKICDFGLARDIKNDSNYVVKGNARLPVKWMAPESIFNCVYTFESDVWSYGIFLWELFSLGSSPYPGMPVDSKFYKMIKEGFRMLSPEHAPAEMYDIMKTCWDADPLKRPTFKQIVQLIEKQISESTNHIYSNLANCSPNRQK

Jnk3 = target: T9, Jnk3 (Homo sapiens, UniProt P53779); test: AlphaScreen kinase assay, Jnk3; conditions: read-out: IC50, activity toward kinase Jnk3
T9 construct: purchased Upstate Biotechnology
T9 sequence (P53779 whole entry): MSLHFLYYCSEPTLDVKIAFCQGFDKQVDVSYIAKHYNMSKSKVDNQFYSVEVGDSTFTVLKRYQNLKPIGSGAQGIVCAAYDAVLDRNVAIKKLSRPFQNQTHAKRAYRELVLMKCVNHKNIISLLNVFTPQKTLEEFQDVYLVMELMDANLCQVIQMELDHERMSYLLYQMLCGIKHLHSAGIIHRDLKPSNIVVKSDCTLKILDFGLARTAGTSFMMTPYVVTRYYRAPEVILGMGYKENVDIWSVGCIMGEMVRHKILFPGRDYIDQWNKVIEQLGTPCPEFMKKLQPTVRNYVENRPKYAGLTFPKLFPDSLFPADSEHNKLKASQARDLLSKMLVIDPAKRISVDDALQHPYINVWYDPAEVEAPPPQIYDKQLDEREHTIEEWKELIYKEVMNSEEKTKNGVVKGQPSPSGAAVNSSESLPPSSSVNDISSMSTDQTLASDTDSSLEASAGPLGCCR

B-Raf = target: T10, B-Raf (Homo sapiens, UniProt P15056); test: AlphaScreen kinase assay, B-Raf; conditions: read-out: IC50, activity toward kinase B-Raf
T10 construct: purchased Upstate Biotechnology
T10 sequence (P15056 whole entry): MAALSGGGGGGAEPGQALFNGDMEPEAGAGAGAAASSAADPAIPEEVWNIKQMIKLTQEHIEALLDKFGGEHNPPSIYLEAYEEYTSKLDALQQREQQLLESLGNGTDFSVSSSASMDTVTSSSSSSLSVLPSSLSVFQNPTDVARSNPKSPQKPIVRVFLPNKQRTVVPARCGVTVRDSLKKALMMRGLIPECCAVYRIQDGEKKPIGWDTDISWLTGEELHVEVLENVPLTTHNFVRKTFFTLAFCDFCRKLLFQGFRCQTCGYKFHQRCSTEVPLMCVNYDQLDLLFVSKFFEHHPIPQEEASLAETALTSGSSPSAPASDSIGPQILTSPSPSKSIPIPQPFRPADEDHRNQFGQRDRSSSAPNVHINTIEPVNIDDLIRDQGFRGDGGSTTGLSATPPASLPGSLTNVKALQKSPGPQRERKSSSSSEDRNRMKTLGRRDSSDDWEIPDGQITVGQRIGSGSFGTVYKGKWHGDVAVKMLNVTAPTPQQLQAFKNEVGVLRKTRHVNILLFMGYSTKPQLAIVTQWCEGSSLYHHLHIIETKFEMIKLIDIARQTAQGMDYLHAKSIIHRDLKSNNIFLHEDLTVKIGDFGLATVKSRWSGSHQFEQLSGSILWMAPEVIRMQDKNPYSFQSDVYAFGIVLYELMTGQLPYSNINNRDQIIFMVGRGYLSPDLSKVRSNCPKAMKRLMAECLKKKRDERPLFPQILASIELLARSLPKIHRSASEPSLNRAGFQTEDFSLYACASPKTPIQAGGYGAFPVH

Measured: IC50

T1 sequence (P45984 whole entry): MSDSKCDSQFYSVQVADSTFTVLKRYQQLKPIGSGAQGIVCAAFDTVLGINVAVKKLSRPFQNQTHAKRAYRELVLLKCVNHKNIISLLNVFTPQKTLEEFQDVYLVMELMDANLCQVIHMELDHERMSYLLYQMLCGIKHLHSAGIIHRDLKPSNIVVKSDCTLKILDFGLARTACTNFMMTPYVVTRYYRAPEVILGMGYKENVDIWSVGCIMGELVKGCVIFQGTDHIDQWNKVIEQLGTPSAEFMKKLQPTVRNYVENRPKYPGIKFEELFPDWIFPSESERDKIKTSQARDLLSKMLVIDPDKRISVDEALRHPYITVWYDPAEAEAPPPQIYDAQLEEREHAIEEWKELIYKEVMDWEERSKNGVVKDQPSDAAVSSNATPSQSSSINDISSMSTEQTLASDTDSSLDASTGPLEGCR

Cc1c(NS(C)(=O)=O)cccc1C(=O)c1c[nH]c2ncc(-c3cccnc3)cc12 [Compound P-0121, N-[2-Methyl-3-(5-pyridin-3-yl-1H-pyrrolo[2,3-b]pyridine-3-carbonyl)-phenyl]-methanesulfonamide]
not listed: Jnk3 | B-Raf
≤ 10 µM: all other assays above

Cn1cccc1-c1nc(-c2ccnc3[nH]ccc23)no1 [Compound P-0285]
≤ 10 µM: Jnk2 | Jnk1 | Jnk3

O=C(c1c[nH]c2ncc(-c3ccccc3)cc12)c1cccc2c1ccn2C(=O)NCc1ccccc1 [Compound P-1611, 4-(5-Phenyl-1H-pyrrolo[2,3-b]pyridine-3-carbonyl)-indole-1-carboxylic acid benzylamide]
≤ 10 µM: Jnk2 | Jnk1 | Jnk3 | Fms | B-Raf V600E

CCCCNC(=O)n1ccc2c(C(=O)c3c[nH]c4ncc(Br)cc34)cccc21 [Compound P-1687, 4-(5-Bromo-1H-pyrrolo[2,3-b]pyridine-3-carbonyl)-indole-1-carboxylic acid butylamide]
≤ 10 µM: Jnk2 | Jnk1 | B-Raf | Jnk3 | Fms | B-Raf V600E

CCCCCNC(=O)n1ccc2c(C(=O)c3c[nH]c4ncc(-c5cccnc5)cc34)cccc21 [Compound P-1702, 4-(5-Pyridin-3-yl-1H-pyrrolo[2,3-b]pyridine-3-carbonyl)-indole-1-carboxylic acid pentylamide]
≤ 10 µM: Jnk2 | Jnk1 | B-Raf | Jnk3 | Fms | B-Raf V600E

CCCN(CCC)C(=O)n1ccc2c(C(=O)c3c[nH]c4ncc(-c5cccnc5)cc34)cccc21 [Compound P-1722, 4-(5-Pyridin-3-yl-1H-pyrrolo[2,3-b]pyridine-3-carbonyl)-indole-1-carboxylic acid dipropylamide]
≤ 10 µM: Jnk2 | Jnk1 | B-Raf | Jnk3 | Fms | B-Raf V600E

O=C(Nc1cccc(C(=O)c2c[nH]c3ncc(-c4cccnc4)cc23)c1)Nc1ccc(F)c(F)c1 [Compound P-1724, 1-(3,4-Difluoro-phenyl)-3-[3-(5-pyridin-3-yl-1H-pyrrolo[2,3-b]pyridine-3-carbonyl)-phenyl]-urea]
≤ 10 µM: Jnk2 | Jnk1 | B-Raf | Jnk3 | Fms | B-Raf V600E

O=C(Nc1ccncc1)Nc1cccc(C(=O)c2c[nH]c3ncc(-c4cccnc4)cc23)c1 [Compound P-1777, 1-Pyridin-4-yl-3-[3-(5-pyridin-3-yl-1H-pyrrolo[2,3-b]pyridine-3-carbonyl)-phenyl]-urea]
≤ 10 µM: Jnk2 | Jnk1 | B-Raf | Jnk3 | B-Raf V600E

CCCCNC(=O)n1ccc2c(C(=O)c3c[nH]c4ncc(-c5ccc(OC)nc5)cc34)cccc21 [Compound P-1827, 4-[5-(6-Methoxy-pyridin-3-yl)-1H-pyrrolo[2,3-b]pyridine-3-carbonyl]-indole-1-carboxylic acid butylamide]
≤ 10 µM: Jnk2 | Jnk1 | B-Raf | Jnk3 | Fms
